According to US9572813B2, “Antiviral agent” (SHIONOGI & CO., LTD., priority 2001, dated 2017):

Target: integrase (Human immunodeficiency virus type 1 group M subtype B, UniProt P04585)
Test: Integrase inhibition assay (microtiter plate strand transfer, substrate DNA/target DNA, anti-digoxigenin ELISA)
Format: biochemical
Conditions: concentration of the compound at percent inhibition 50%; 30° C. for 1 hour; OD at 405 nm
Method: The inhibitory activities against integrase of the compounds in the present invention have been determined by the assay described below.
(1) Preparation of DNA Solutions.
Substrate DNA and target DNA, which sequences were indicated below, were synthesized by Amersham Pharmacia Biotech and dissolved in KTE buffer (composition: 100 mM KCl, 1 mM EDTA, 10 mM Tris-HCl (pH 7.6)) at concentration of 2 pmol/μl and 0.5 pmol/μl, respectively. The DNA solutions were annealed with each complement by slowly cooling after heating.
(2) Calculations of the Percent Inhibitions (the IC50 Values of Test Compounds)
Streptavidin, obtained from Vector Laboratories, was dissolved in 0.1 M carbonate buffer (composition: 90 mM Na2CO3, 10 mM NaHCO3) at concentration of 40 µg/ml. After coating each well of microtiter plates (obtained from NUNC) with 50 μL of the above solution at 4° C. over night, each well was washed twice with PBS (composition: 13.7 mM NaCl, 0.27 mM KCl, 0.43 mM Na2HPO4, 0.14 mM KH2PO4) and blocked with 300 μl of 1% skim milk in PBS for 30 min. Additionally, each well was washed twice with PBS and added 50 μl of substrate DNA solution (0.04 pmol/μl) diluted to one fiftieth with NTE buffer (composition: 1M NaCl, 10 mM Tris-HCl (pH8.0), 1 mM EDTA). The microtiter plates were kept at room temperature for 30 min. Then, each well was washed twice with PBS and once with H2O.
Subsequently, in the each well prepared above were added 45 μl of the reaction buffer prepared from 12 μl of the buffer (composition: 150 mM MOPS (pH 7.2), 75 mM MnCl2, 50 mM 2-mercaptoethanol, 25% glycerol, 500 μg/ml bovine serum albumin-fraction V), 1 μl of target DNA (5 pmol/μl), and 32 μl of the distilled water. Additionally, 6 μl of either a test compound in DMSO or DMSO for positive control (PC) was mixed with the above reaction buffer, then 9 μl of an integrase solution (30 pmol) was added and mixed well. In the well of negative control (NC) was added 9 μl of the integrase dilution buffer (composition: Hepes (pH7.6), 400 mM potassium glutamate, 1 mM EDTA, 0.1% NP-40, 20% glycerol, 1 mM DTT, 4M urea).
The microtiter plates were incubated at 30° C. for 1 hour. The reaction solution was removed and each well was washed twice with PBS. Subsequently, each well of the microtiter plates was filled with 100 μl of anti-digoxigenin antibody labeled with alkaline phosphatase (Sheep Fab fragment: obtained from Boehringer) and incubated at 30° C. for 1 hour. Then, each well was washed twice with 0.05% Tween20 in PBS and once with PBS. Next, 150 μl of the Alkaline phosphatase reaction buffer (composition: 10 mM p-Nitrophenylphosphate (obtained from Vector Laboratories), 5 mM MgCl2, 100 mM NaCl, 100 mM Tris-HCl (pH 9.5)) was added in each well. The microtiter plates were incubated at 30° C. for 2 hours. The optical density (OD) at 405 nm of each well was measured and the percent inhibition was determined by the following expression. The percent inhibition (%)=100[1−{(C abs.−NC abs.)/(PC abs.−NC abs.)}] • C abs.; the OD of the well of the • NC abs.: the OD of the negative control (NC) • PC abs.: the OD of the positive control (PC)
When the percent inhibition (%) is X % at the concentration of x μg/ml and the percent inhibition (%) is Y % at the concentration of y μg/ml, one of which is more than 50% and the other is less than 50%, IC50 can be determined by the following expression. IC50(μg/ml)=x−{(X−50),(x−y)/(X−Y)}
Compound No. in the Table 1 is the same as compound No. of the above example.

Compound	IC50
3-hydroxy-1-isopropyl-4-(6-phenethylpyrimidine-4-yl)-1,5-dihydropyrrole-2-one [Compound H-7]	0.68 µg/mL

Same assay, conditions: concentration of the compound at percent inhibition 50%; 30° C. for 1 hour; OD at 405 nm; read-out: IC50 (converted)

Compound	IC50
CN1CC(c2ncc(OCc3ccc(F)cc3)cn2)=C(O)C1=O [Compound B-68, 4-[5-(4-fluorobenzyloxy)pyrimidine-2-yl]-3-hydroxy-1-methyl-1,5-dihydropyrrole-2-one]	698 nM
CN1CC(c2cc(OCc3ccc(F)cc3)ncn2)=C(O)C1=O [Compound B-12-b, 4-[6-(4-Fluorobenzyloxyl)pyrimidine-4-yl]-3-hydroxy-1-methyl-1,5-dihydropyrrole-2-one]	666 nM
Cn1ccc(-c2nnc(Cc3ccc(F)cc3)o2)c(O)c1=O [Compound K-4, 4-[5-(4-fluorobenzyl)-[1,3,4]oxadiazole-2-yl]-3-hydroxy-1-methyl-1H-pyridine-2-one]	1890 nM
Cn1ncnc1-c1oc2cccc(OCc3ccc(F)cc3)c2c(=O)c1O [Compound C-39, 5-[(4-fluorobenzyl)oxy]-3-hydroxy-2-(2-methyl-2H-[1,2,4]triazole-3-yl)-4H-1-benzopyrane-4-one]	626 nM
O=C(c1ccc(Cc2ccc(F)cc2)o1)c1[nH]ccc(=O)c1O [Compound L-4, 2-[5-(4-fluorobenzyl)furan-2-carbonyl]-3-hydroxy-1H-pyridine-4-one]	1560 nM
O=c1c(O)c(-c2nnc(Cc3ccc(F)cc3)o2)oc2ccccc12 [Compound C-26, 2-[5-(4-fluorobenzyl)-[1,3,4]-oxadiazole-2-yl]-3-hydroxy-4H-1-benzopyrane-4-one]	1060 nM
CCN1CCC(C(=O)c2ccc(Cc3ccc(F)cc3)o2)=C(O)C1=O [Compound I-4, 1-ethyl-4-[5-(4-fluorobenzyl)furan-2-carbonyl]-3-hydroxy-5,6-dihydro-1H-pyridine-2-one]	1460 nM
Cc1nc(=O)c(O)c(-c2ccc(Cc3ccc(F)cc3)cn2)[nH]1 [Compound G-7, 6-[5-(4-fluorobenzyl)pyridine-2-yl]-5-hydroxy-2-methyl-1H-pyrimidine-4-one]	1540 nM
CCCCN1CC(C(=O)c2ccc(Cc3ccc(F)cc3)o2)=C(O)C1=O [Compound A-17-c, 1-Butyl-4-[5-(4-fluorobenzyl)furan-2-carbonyl]-3-hydroxy-1,5-dihydropyrrole-2-one]	2630 nM

System: not given
Test: not given
Conditions: not given

Compound	melting point
CN1CC(c2ncc(OCc3ccc(F)cc3)cn2)=C(O)C1=O [Compound B-68, 4-[5-(4-fluorobenzyloxy)pyrimidine-2-yl]-3-hydroxy-1-methyl-1,5-dihydropyrrole-2-one]	185 to 187 °C
Cn1ccc(-c2nnc(Cc3ccc(F)cc3)o2)c(O)c1=O [Compound K-4, 4-[5-(4-fluorobenzyl)-[1,3,4]oxadiazole-2-yl]-3-hydroxy-1-methyl-1H-pyridine-2-one]	216 to 218 °C
Cn1ncnc1-c1oc2cccc(OCc3ccc(F)cc3)c2c(=O)c1O [Compound C-39, 5-[(4-fluorobenzyl)oxy]-3-hydroxy-2-(2-methyl-2H-[1,2,4]triazole-3-yl)-4H-1-benzopyrane-4-one]	215 to 216 °C
CN1CC(C(=O)c2oc(C3CCS(=O)(=O)CC3)cc2Cc2ccc(F)cc2)=C(O)C1=O	200 to 203 °C
Cc1nc(=O)c(O)c(-c2nnc(Cc3ccc(F)cc3)o2)[nH]1	283 to 286 °C
Cc1ccc(-c2cc(Cc3ccc(F)cc3)c(C(=O)C3=C(O)C(=O)N(C)C3)o2)cc1	242 to 245 °C
CC(C)N1CC(c2cc(C(Cc3ccc(F)cc3)Cc3ccc(F)cc3)ncn2)=C(O)C1=O	181 to 183 °C
CC(C)N1CC(c2ncc(CCc3ccc(F)cc3)s2)=C(O)C1=O	208 to 210 °C
CC(C)(C)c1cc(Cc2ccc(F)cc2)c(C(=O)C2=C(O)C(=O)N(C3CC3)C2)o1	148 to 150 °C
CC(C)N1CC(c2cc(CCc3ccccc3)cnn2)=C(O)C1=O	182 to 184 °C
O=C(c1ccc(Cc2ccc(F)cc2)o1)c1occ(Br)c(=O)c1O	191 to 192 °C
CC(C)N1CC(c2ncc(Cc3ccc(F)cc3)cn2)=C(O)C1=O	155 to 157 °C
CN(C)C(=O)c1ccc(OCc2ccc(F)cc2)c2c(=O)c(O)c(-c3ncnn3C)oc12	246 to 247 °C
CN1CC(C(=O)c2nc(Cc3ccc(F)cc3)co2)=C(O)C1=O	209 to 210 °C
CN1CC(c2ncnc(OCc3ccc(F)cc3)n2)=C(O)C1=O	169 to 171 °C
CC(C)N1CC(C(=O)c2cncn2Cc2ccc(F)cc2)=C(O)C1=O	156 to 159 °C
CN1CC(c2ncc(Oc3ccc(F)cc3)cn2)=C(O)C1=O	230 to 232 °C
CC(C)N1CC(c2cc(CCc3ccc(F)cc3)ccn2)=C(O)C1=O	167 to 168 °C
Cc1oc(C(=O)C2=C(O)C(=O)N(C)C2)c(Cc2ccc(F)cc2)c1C	202 to 204 °C
COCCN1CC(C(=O)c2occc2Cc2ccc(F)cc2)=C(O)C1=O	170 °C

Other lines, results leading:

melting point	Compound
229 to 231 °C	O=C(c1ccc(Cc2ccc(F)cc2)o1)c1cc[nH]c(=O)c1O
212 to 214 °C	CC(C)N1CC(c2ncc(Cc3ccc(F)cc3)s2)=C(O)C1=O
150 to 151 °C	CN1CC(C(=O)c2cnn(Cc3ccc(F)cc3)c2)=C(O)C1=O
235 to 236 °C	O=C(NCc1ccc(F)cc1)c1oc2ccccc2c(=O)c1O
154 to 157 °C	CCN1CC(C(=O)c2oc(S(C)(=O)=O)cc2Cc2ccc(F)cc2)=C(O)C1=O
159 to 161 °C	CC(C)N1CC(C(=O)c2oc(Cc3ccc(F)cc3)cc2Cc2ccc(F)cc2)=C(O)C1=O
265 to 267 °C	CN1CC(C(=O)c2c[nH]cc2Cc2ccc(F)cc2)=C(O)C1=O
228 to 230 °C	CN1CC(c2ccc([S+]([O-])c3ccc(F)cc3)cn2)=C(O)C1=O (centres unmarked)
171 to 172 °C	CN1CC(C(=O)c2ccoc2Cc2ccc(F)cc2)=C(O)C1=O
164 to 166 °C	COc1cc(Cc2ccc(C(=O)C3=C(O)C(=O)N(C)C3)o2)ccc1F
181 to 183 °C	CC(C)N1CC(c2ccc(Oc3ccccc3)cn2)=C(O)C1=O
98 to 99 °C	CC(C)Oc1cccc(Cc2ccc(C(=O)C3=C(O)C(=O)N(C(C)C)C3)o2)c1
98 to 100 °C	CC(C)Oc1cc(F)ccc1Cc1ccc(C(=O)C2=C(O)C(=O)N(C(C)C)C2)o1
116 to 118 °C	CN1CC(C(=O)c2ccc(Cc3ccccc3)o2)=C(O)C1=O
150 to 151 °C	CN1CC(C(=O)c2cccn2Cc2ccc(F)cc2)=C(O)C1=O
222 to 224 °C	CN1CC(c2ncc(Cc3ccc(F)cc3)s2)=C(O)C1=O
222 to 223 °C	O=C1C(O)=C(c2cc(CCc3ccccc3)ncn2)CN1Cc1ccccc1
260 to 262 °C	O=c1c(O)c(-c2ncn(Cc3ccc(F)cc3)n2)oc2ccccc12
178 to 179 °C	O=C1NCC(C(=O)c2ccc(Cc3ccc(F)cc3)o2)=C1O
264 to 266 °C	Cn1cnc(-c2oc3cccc(OCc4ccc(F)cc4)c3c(=O)c2O)n1
178 to 179 °C	CC(C)N1CC(c2ccc(Oc3ccc(F)cc3)cn2)=C(O)C1=O
169 to 170 °C	CCNC(=O)c1cc(C(=O)C2=C(O)C(=O)N(C)C2)oc1Cc1ccc(F)cc1
181 to 184 °C	CN1CC(C(=O)c2cc(C(=O)NCc3ccccc3)c(Cc3ccc(F)cc3)o2)=C(O)C1=O
95 to 96.5 °C	C=CCN1CC(C(=O)c2ccc(Cc3ccc(F)cc3)o2)=C(O)C1=O
199 to 200 °C	CC(C)(C)N1CC(c2cc(CCc3ccccc3)ncn2)=C(O)C1=O
155 to 157 °C	CC(C)N1CC(c2nccc(OCc3ccccc3)n2)=C(O)C1=O
192 to 193 °C	Cn1ncnc1-c1oc2cccc(CCc3ccc(F)cc3)c2c(=O)c1O
158 to 160 °C	CN1CC(c2ncc(CCc3ccc(F)cc3)cn2)=C(O)C1=O
233 to 235 °C	CN1CC(c2cnc(Oc3ccccc3)cn2)=C(O)C1=O
